Legend:
[1] = target: T1, CDK2/Cyclin E1 (Homo sapiens, UniProt P24941); assay: ADPGLO (CDK2/E1-37 C), ADP-Glo Luminescent Kinase Assay; assay type: biochemical; conditions: 0.18 nM CDK2/Cyclin E1, 100 μM ATP, Histone H1, 37° C.
T1 construct: purchased 14-475
Method: Inhibition of CDK2/Cyclin E1 activity by the presence of small molecules was evaluated using ADP-Glo Luminescent Kinase Assay (Promega). Activated CDK2/Cyclin E1 was incubated with its substrate Histone H1 (SignalChem H10-54N) in the kinase reaction buffer (100 μM ATP, 50 mM HEPES pH 7.5, 10 mM MgCl2, 1 mM EDTA, 2 mM DTT, 0.01% Brij35, 0.5 mg/mL BSA). Luminescence was recorded with an Envision plate reader (PerkinElmer).
Dose titrations of inhibitors in 100% DMSO were combined with 0.36 nM CDK2/Cyclin E1 in reaction buffer. The mixtures were incubated for 60 minutes at 37° C. before the addition of ATP and Histone H1 substrate to initiate the kinase reaction. The final conditions were 0.18 nM CDK2/Cyclin E1, 100 μM ATP, and 1.5 μM Histone H1. The reactions were incubated at 37° C. for 90 minutes before being stopped with the addition of ADP-Glo reagent. This mixture was incubated at room temperature for 60 minutes before Kinase Detection Solution is added to generate luminescence. The stopped reactions were analyzed on an Envision plate reader. The conversion ratios were normalized to yield % activity, plotted against compound concentration, and fit to a four-parameter equation to determine the IC50 for each compound.

[2] = tested on: Kuramochi cells; assay: IncuCyte Kuramochi Assay (cell proliferation); assay type: cell-based; conditions: 72 h, Kuramochi cells labeled with mApple-H2B, cell count, read-out: IncuCyte - Kuramochi RB-WT: IC50
Summary of the method: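 GI50 came from dose-response fits of cell-count fold change between 0 and 72 h, normalized to DMSO controls. Counts were fluorescent nuclei from live-cell images over a 10-point, ½ log series starting at 20 μM.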

[3] = target: T1, CDK2/Cyclin E1; assay: Caliper Assay (LabChip EZ Reader mobility shift assay), inhibition of CDK2/Cyclin E1 activity; assay type: biochemical; conditions: 2.5 nM CDK2/Cyclin E1(14-475), 100 μM ATP, 30 min preincubation; read-out: Caliper Assay (CDK2/CCNE1): IC50
Summary of the method: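 Compounds were preincubated 30 min with CDK2/Cyclin E1(14-475), then run for 100 min with 2.5 nM enzyme, 100 μM ATP and 1.5 μM 5-FAM-QSPKKG peptide in HEPES pH 7.5 (final). Reactions were EDTA-stopped and substrate-to-product conversion read by mobility shift. IC50 came from a four-parameter fit.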

Compound | IC50 [1] [µM] | IC50 [2] [µM] | IC50 [3] [µM]
O=C(c1cnn(Cc2cccc3c2CCNC3)c1)N1CC(c2nnc(C(F)(F)c3ccc(Cl)c(Cl)c3)o2)C2(C1)CN(C(=O)C1(C(F)(F)F)CC1)C2 (stereo not drawn) [I-106] | > 10 | 5 to 10 | 
O=C(c1cnc(O)cn1)N1CC(c2nnc(C(COCc3ccccc3)c3cccc(C4CCCCC4)c3)o2)C2(C1)CN(C(=O)C1(C(F)(F)F)CC1)C2 (stereo not drawn) [I-107, (8-(5-(2-(benzyloxy)-1-(3-cyclohexylphenyl)ethyl)-1,3,4-oxadiazol-2-yl)-2-(1-(trifluoromethyl)cyclopropane-1-carbonyl)-2,6-diazaspiro[3.4]octan-6-yl)(5-hydroxypyrazin-2-yl)methanone] | ≤ 0.5 | 0.5 to 5 | 
CC(C)(C#N)C(=O)N1CC2(CN(C(=O)c3cn[nH]c3)CC2c2nnc(C(F)(F)c3ccc(Cl)c(Cl)c3)o2)C1 (stereo not drawn) [I-177] |  | > 10 | > 10
CC(C)(O)C(=O)N1CC2(CN(C(=O)c3cncs3)CC2c2nnc(C(F)(F)c3ccc(Cl)c(Cl)c3)o2)C1 (stereo not drawn) [I-178] |  | > 10 | > 10
CC1(C)OC1C(=O)N1CC2(CN(C(=O)c3cncs3)CC2c2nnc(C(F)(F)c3ccc(Cl)c(Cl)c3)o2)C1 (stereo not drawn) [I-179, (8-(5-((3,4-dichlorophenyl)difluoromethyl)-1,3,4-oxadiazol-2-yl)-2-(3,3-dimethyloxirane-2-carbonyl)-2,6-diazaspiro[3.4]octan-6-yl)(thiazol-5-yl)methanone] |  | 5 to 10 | > 10
O=C(c1cncs1)N1CC(c2nnc(C(F)(F)c3ccc(Cl)c(Cl)c3)o2)C2(CC(C(=O)N3CCC3)C2)C1 (stereo not drawn) [I-180] |  | > 10 | > 10
O=C(N1CC2(C1)CN(c1ncnc3ncsc13)CC2c1nnc(C(F)(F)c2ccc(Cl)c(Cl)c2)o1)C1(C(F)(F)F)CC1 (stereo not drawn) [I-181, (8-(5-((3,4-dichlorophenyl)difluoromethyl)-1,3,4-oxadiazol-2-yl)-6-(thiazolo[4,5-d]pyrimidin-7-yl)-2,6-diazaspiro[3.4]octan-2-yl)(1-(trifluoromethyl)cyclopropyl)methanone] |  | > 10 | > 10
O=C(c1cncs1)N1CC(c2nnc(C(F)(F)c3ccc(Cl)c(Cl)c3)o2)C2(CN(CC3CCCO3)C2)C1 (stereo not drawn) [I-182, (8-(5-((3,4-dichlorophenyl)difluoromethyl)-1,3,4-oxadiazol-2-yl)-2-((tetrahydrofuran-2-yl)methyl)-2,6-diazaspiro[3.4]octan-6-yl)(thiazol-5-yl)methanone] |  | > 10 | > 10
FC(F)(c1ccc(Cl)c(Cl)c1)c1nnc(C2CN(c3ncnc4ncsc34)CC23CN(c2ncccn2)C3)o1 (stereo not drawn) [I-183, 2-((3,4-dichlorophenyl)difluoromethyl)-5-(2-(pyrimidin-2-yl)-6-(thiazolo[4,5-d]pyrimidin-7-yl)-2,6-diazaspiro[3.4]octan-8-yl)-1,3,4-oxadiazole] |  | > 10 | > 10
O=C(c1cncs1)N1CC(c2nnc(C(F)(F)c3ccc(Cl)c(Cl)c3)o2)C2(C1)CN(c1ccccn1)C2 (stereo not drawn) [I-184] |  | > 10 | > 10
CC1(C)C[C@@H]1C(=O)N1CC2(CN(C(=O)c3cnc(C#N)s3)CC2c2nnc(C(F)(F)c3ccc(Cl)c(Cl)c3)o2)C1 (stereo partly drawn) [I-185] |  | 5 to 10 | > 10
O=C(c1cncs1)N1CC(c2nnc(C(F)(F)c3ccc(Cl)c(Cl)c3)o2)C2(C1)CN(C(=O)N1CCC1)C2 (stereo not drawn) [I-186, Azetidin-1-yl(8-(5-((3,4-dichlorophenyl)difluoromethyl)-1,3,4-oxadiazol-2-yl)-6-(thiazole-5-carbonyl)-2,6-diazaspiro[3.4]octan-2-yl)methanone] |  | > 10 | > 10
O=C(c1cncs1)N1CC(c2nnc(C(F)(F)c3ccc(Cl)c(Cl)c3)o2)C2(C1)CN(c1cccnn1)C2 (stereo not drawn) [I-187, (8-(5-((3,4-dichlorophenyl)difluoromethyl)-1,3,4-oxadiazol-2-yl)-2-(pyridazin-3-yl)-2,6-diazaspiro[3.4]octan-6-yl)(thiazol-5-yl)methanone] |  | > 10 | > 10
CC(C)(CO)C(=O)N1CC2(CN(C(=O)c3cncs3)CC2c2nnc(C(F)(F)c3ccc(Cl)c(Cl)c3)o2)C1 (stereo not drawn) [I-189] |  | > 10 | 1 to 10
CC(C)=CC(=O)N1CC2(C1)CN(C(=O)c1cncs1)CC2c1nnc(C(F)(F)c2ccc(Cl)c(Cl)c2)o1 (stereo not drawn) [I-190] |  | > 10 | > 10
O=C(c1cn[nH]c1)N1CC(c2nnc(C(F)(F)c3ccc(Cl)c(Cl)c3)o2)C2(C1)CN(C(=O)[C@H]1CC1(F)F)C2 (stereo partly drawn) [I-191, (8-(5-((3,4-dichlorophenyl)difluoromethyl)-1,3,4-oxadiazol-2-yl)-2-((R)-2,2-difluorocyclopropane-1-carbonyl)-2,6-diazaspiro[3.4]octan-6-yl)(1H-pyrazol-4-yl)methanone] |  | > 10 | 1 to 10
CC1(C)C[C@@H]1C(=O)N1CC2(C1)CN(c1ncnc3ncsc13)CC2c1nnc(C(F)(F)c2ccc(Cl)c(Cl)c2)o1 (stereo partly drawn) [I-192, (8-(5-((3,4-dichlorophenyl)difluoromethyl)-1,3,4-oxadiazol-2-yl)-6-(thiazolo[4,5-d]pyrimidin-7-yl)-2,6-diazaspiro[3.4]octan-2-yl)((S)-2,2-dimethylcyclopropyl)methanone] |  | 5 to 10 | 1 to 10
CC1(C)C[C@@H]1C(=O)N1CC2(CN(C(=O)c3cncs3)CC2c2cn(Cc3ccc(C4CC4)cc3)nn2)C1 (stereo partly drawn) [I-193] |  | > 10 | 1 to 10
CC1(C)C[C@@H]1C(=O)N1CC2(CN(C(=O)c3cncs3)CC2c2cn(Cc3ccc(C4(C(F)(F)F)CC4)cc3)nn2)C1 (stereo partly drawn) [I-194] |  | > 10 | 0.1 to 1
CC1(C)C[C@@H]1C(=O)N1CC2(CN(C(=O)c3cncs3)CC2c2cn(Cc3cccc(C(F)(F)F)c3)nn2)C1 (stereo partly drawn) [I-195] |  | > 10 | 1 to 10
CC(=O)N1CC2(C1)CN(C(=O)c1cncs1)CC2c1nnc(C(F)(F)c2ccc(Cl)c(Cl)c2)o1 (stereo not drawn) [I-196] |  | > 10 | > 10
O=C(c1cncs1)N1CC(c2nnc(Cc3ccc(Cl)c(Cl)c3)o2)C2(C1)CN(c1ccccn1)C2 (stereo not drawn) [I-197, (8-(5-(3,4-dichlorobenzyl)-1,3,4-oxadiazol-2-yl)-2-(pyridin-2-yl)-2,6-diazaspiro[3.4]octan-6-yl)(thiazol-5-yl)methanone] |  | > 10 | > 10
C=C(c1ccc(C(F)(F)c2nnc(C3CN(C(=O)c4cncs4)CC34CN(C(=O)[C@H]3CC3(C)C)C4)o2)cc1)C(F)(F)F (stereo partly drawn) [I-198, (8-(5-(difluoro(4-(3,3,3-trifluoroprop-1-en-2-yl)phenyl)methyl)-1,3,4-oxadiazol-2-yl)-2-((S)-2,2-dimethylcyclopropane-1-carbonyl)-2,6-diazaspiro[3.4]octan-6-yl)(thiazol-5-yl)methanone] |  | 0.5 to 5 | 0.01 to 0.1
CC1(C)C[C@@H]1C(=O)N1CC2(CN(C(=O)c3cnc(Br)s3)CC2c2nnc(C(F)(F)c3ccc(Cl)c(Cl)c3)o2)C1 (stereo partly drawn) [I-199] |  | 5 to 10 | > 10
CC(=O)N1CC(c2nnc(C(F)(F)c3ccc(Cl)c(Cl)c3)o2)C2(C1)CN(C(=O)[C@H]1CC1(C)C)C2 (stereo partly drawn) [I-200] |  | > 10 | > 10
CC1(C)C[C@@H]1C(=O)N1CC2(CN(C(=O)c3cncs3)CC2c2ncc(Cc3ccc(C(F)(F)F)c(Cl)c3)o2)C1 (stereo partly drawn) [I-201, (8-(5-(3-chloro-4-(trifluoromethyl)benzyl)oxazol-2-yl)-2-((S)-2,2-dimethylcyclopropane-1-carbonyl)-2,6-diazaspiro[3.4]octan-6-yl)(thiazol-5-yl)methanone] |  | 5 to 10 | 0.1 to 1
CC1(C)C[C@@H]1C(=O)N1CC2(CN(C(=O)c3cncs3)CC2c2cn(Cc3ccc(C(F)(F)F)cc3)nn2)C1 (stereo partly drawn) [I-202] |  | > 10 | > 10
O=C(CC(F)(F)F)N1CC(c2nnc(C(F)(F)c3ccc(Cl)c(Cl)c3)o2)C2(C1)CN(C(=O)CC(F)(F)F)C2 (stereo not drawn) [I-203] |  | > 10 | > 10
CC(=O)N1CC(c2nnc(C(F)(F)c3ccc(Cl)c(Cl)c3)o2)C2(C1)CN(C(C)=O)C2 (stereo not drawn) [I-204] |  | > 10 | > 10
O=C(N1CC(c2nnc(C(F)(F)c3ccc(Cl)c(Cl)c3)o2)C2(C1)CN(C(=O)C(F)(F)F)C2)C(F)(F)F (stereo not drawn) [I-205, 1,1′-(8-(5-((3,4-dichlorophenyl)difluoromethyl)-1,3,4-oxadiazol-2-yl)-2,6-diazaspiro[3.4]octane-2,6-diyl)bis(2,2,2-trifluoroethan-1-one)] |  | 5 to 10 | > 10

From patent US20260151375A1, “CDK2 INHIBITORS AND METHODS OF USING THE SAME” (Cedilla Therapeutics, Inc., priority 2022, published 2026)
